Assay results taken from PubChem BioAssay AID1259407 (Chemical Carcinogenesis Research Information System (CCRIS), 2018).
Calls of active or inactive are those of the source. The rule behind the calls is not given here.

Tested on: CCRIS mutagenicity, Ames/micronucleus/aberration tests
Test: CCRIS mutagenicity studies
[1] = Test System: AMES SALMONELLA TYPHIMURIUM, Strain/Indicator: TA98, Metabolic Activation: NONE, Method: PREINCUBATION
[2] = Test System: AMES SALMONELLA TYPHIMURIUM, Strain/Indicator: TA100, Metabolic Activation: NONE, Method: PREINCUBATION

Measured: mutagenic call

O=C1NC(=O)C(c2ccccc2)(c2ccccc2)N1
inactive: End Point: IN VITRO CHROMOSOMAL ABERRATIONS, Test System: CHINESE HAMSTER OVARY CELLS, Metabolic Activation: NONE inactive; negative | End Point: IN VITRO CHROMOSOMAL ABERRATIONS, Test System: CHINESE HAMSTER OVARY CELLS, Metabolic Activation: RAT, LIVER, S-9, AROCLOR 1254 inactive; negative | End Point: IN VIVO MICRONUCLEUS, Test System: BONE MARROW POLYCHROMATIC ERYTHROCYTES, Species: MOUSE, Strain/Sex: CD-1/MALE, FEMALE, Route: IP inactive; negative | End Point: IN VIVO MICRONUCLEUS, Test System: FETAL LIVER POLYCHROMATIC ERYTHROCYTES (MALES AND FEMALES), Species: MOUSE, Strain/Sex: FEMALE (PREGNANT), Route: IP inactive; negative | Test System: AMES SALMONELLA TYPHIMURIUM, Strain/Indicator: TA97, Metabolic Activation: NONE, Method: STANDARD PLATE inactive; negative | Test System: AMES SALMONELLA TYPHIMURIUM, Strain/Indicator: TA97, Metabolic Activation: RAT, LIVER, S-9, 3-METHYLCHOLANTHRENE, Method: PREINCUBATION (10, 20 OR 30 MIN) inactive; negative | Test System: AMES SALMONELLA TYPHIMURIUM, Strain/Indicator: TA97, Metabolic Activation: RAT, LIVER, S-9, AROCLOR 1254 (50 OR 100 UG), Method: STANDARD PLATE inactive; negative | Test System: AMES SALMONELLA TYPHIMURIUM, Strain/Indicator: TA97, Metabolic Activation: RAT, LIVER, S-9, AROCLOR 1254, Method: PREINCUBATION (10, 20 OR 30 MIN) inactive; negative | Test System: AMES SALMONELLA TYPHIMURIUM, Strain/Indicator: TA97, Metabolic Activation: RAT, LIVER, S-9, AROCLOR 1254, Method: STANDARD PLATE inactive; negative | Test System: AMES SALMONELLA TYPHIMURIUM, Strain/Indicator: TA97, Metabolic Activation: RAT, LIVER, S-9, PHENOBARBITONE, Method: PREINCUBATION (10, 20 OR 30 MIN) inactive; negative | Test System: AMES SALMONELLA TYPHIMURIUM, Strain/Indicator: TA98, Metabolic Activation: HAMSTER, LIVER, S-9, AROCLOR 1254 (10%), Method: PREINCUBATION inactive; negative | [1] inactive; negative | Test System: AMES SALMONELLA TYPHIMURIUM, Strain/Indicator: TA98, Metabolic Activation: NONE, Method: STANDARD PLATE inactive; negative | Test System: AMES SALMONELLA TYPHIMURIUM, Strain/Indicator: TA98, Metabolic Activation: RAT, LIVER, S-9, 3-METHYLCHOLANTHRENE, Method: STANDARD PLATE inactive; negative | Test System: AMES SALMONELLA TYPHIMURIUM, Strain/Indicator: TA98, Metabolic Activation: RAT, LIVER, S-9, AROCLOR 1254 (10%), Method: PREINCUBATION inactive; negative | Test System: AMES SALMONELLA TYPHIMURIUM, Strain/Indicator: TA98, Metabolic Activation: RAT, LIVER, S-9, AROCLOR 1254 (50 OR 100 UG), Method: STANDARD PLATE inactive; negative | Test System: AMES SALMONELLA TYPHIMURIUM, Strain/Indicator: TA98, Metabolic Activation: RAT, LIVER, S-9, AROCLOR 1254, Method: PREINCUBATION (10, 20 OR 30 MIN) inactive; negative | Test System: AMES SALMONELLA TYPHIMURIUM, Strain/Indicator: TA98, Metabolic Activation: RAT, LIVER, S-9, AROCLOR 1254, Method: STANDARD PLATE inactive; negative | Test System: AMES SALMONELLA TYPHIMURIUM, Strain/Indicator: TA98, Metabolic Activation: RAT, LIVER, S-9, PHENOBARBITONE, Method: STANDARD PLATE inactive; negative | Test System: AMES SALMONELLA TYPHIMURIUM, Strain/Indicator: TA100, Metabolic Activation: HAMSTER, LIVER, S-9, AROCLOR 1254 (10%), Method: PREINCUBATION inactive; negative | [2] inactive; negative | Test System: AMES SALMONELLA TYPHIMURIUM, Strain/Indicator: TA100, Metabolic Activation: NONE, Method: STANDARD PLATE inactive; negative | Test System: AMES SALMONELLA TYPHIMURIUM, Strain/Indicator: TA100, Metabolic Activation: RAT, LIVER, S-9, AROCLOR 1254 (10%), Method: PREINCUBATION inactive; negative | Test System: AMES SALMONELLA TYPHIMURIUM, Strain/Indicator: TA100, Metabolic Activation: RAT, LIVER, S-9, AROCLOR 1254 (50 OR 100 UG), Method: STANDARD PLATE inactive; negative | Test System: AMES SALMONELLA TYPHIMURIUM, Strain/Indicator: TA100, Metabolic Activation: RAT, LIVER, S-9, AROCLOR 1254, Method: STANDARD PLATE inactive; negative | Test System: AMES SALMONELLA TYPHIMURIUM, Strain/Indicator: TA1530, Metabolic Activation: NONE, Method: STANDARD PLATE inactive; negative | Test System: AMES SALMONELLA TYPHIMURIUM, Strain/Indicator: TA1530, Metabolic Activation: RAT, LIVER, S-9, AROCLOR 1254 (50 OR 100 UG), Method: STANDARD PLATE inactive; negative | Test System: AMES SALMONELLA TYPHIMURIUM, Strain/Indicator: TA1535, Metabolic Activation: HAMSTER, LIVER, S-9, AROCLOR 1254 (10%), Method: PREINCUBATION inactive; negative | Test System: AMES SALMONELLA TYPHIMURIUM, Strain/Indicator: TA1535, Metabolic Activation: NONE, Method: PREINCUBATION inactive; negative | Test System: AMES SALMONELLA TYPHIMURIUM, Strain/Indicator: TA1535, Metabolic Activation: RAT, LIVER, S-9, AROCLOR 1254 (10%), Method: PREINCUBATION inactive; negative | Test System: AMES SALMONELLA TYPHIMURIUM, Strain/Indicator: TA1537, Metabolic Activation: HAMSTER, LIVER, S-9, AROCLOR 1254 (10%), Method: PREINCUBATION inactive; negative | Test System: AMES SALMONELLA TYPHIMURIUM, Strain/Indicator: TA1537, Metabolic Activation: NONE, Method: PREINCUBATION inactive; negative | Test System: AMES SALMONELLA TYPHIMURIUM, Strain/Indicator: TA1537, Metabolic Activation: NONE, Method: STANDARD PLATE inactive; negative | Test System: AMES SALMONELLA TYPHIMURIUM, Strain/Indicator: TA1537, Metabolic Activation: RAT, LIVER, S-9, AROCLOR 1254 (10%), Method: PREINCUBATION inactive; negative | Test System: AMES SALMONELLA TYPHIMURIUM, Strain/Indicator: TA1537, Metabolic Activation: RAT, LIVER, S-9, AROCLOR 1254 (50 OR 100 UG), Method: STANDARD PLATE inactive; negative | Test System: AMES SALMONELLA TYPHIMURIUM, Strain/Indicator: TA1538, Metabolic Activation: NONE, Method: STANDARD PLATE inactive; negative | Test System: AMES SALMONELLA TYPHIMURIUM, Strain/Indicator: TA1538, Metabolic Activation: RAT, LIVER, S-9, 3-METHYLCHOLANTHRENE, Method: STANDARD PLATE inactive; negative | Test System: AMES SALMONELLA TYPHIMURIUM, Strain/Indicator: TA1538, Metabolic Activation: RAT, LIVER, S-9, AROCLOR 1254 (50 OR 100 UG), Method: STANDARD PLATE inactive; negative | Test System: AMES SALMONELLA TYPHIMURIUM, Strain/Indicator: TA1538, Metabolic Activation: RAT, LIVER, S-9, AROCLOR 1254, Method: PREINCUBATION (10, 20 OR 30 MIN) inactive; negative | Test System: AMES SALMONELLA TYPHIMURIUM, Strain/Indicator: TA1538, Metabolic Activation: RAT, LIVER, S-9, AROCLOR 1254, Method: STANDARD PLATE inactive; negative | Test System: AMES SALMONELLA TYPHIMURIUM, Strain/Indicator: TA1538, Metabolic Activation: RAT, LIVER, S-9, PHENOBARBITONE, Method: STANDARD PLATE inactive; negative | Test System: CHINESE HAMSTER OVARY, Strain/Indicator: CHO-K1-BH4 (HGPRT)/6-THIOGUANINE, Metabolic Activation: NONE, Method: SUSPENSION/PLATE inactive; negative | Test System: CHINESE HAMSTER OVARY, Strain/Indicator: CHO-K1-BH4 (HGPRT)/6-THIOGUANINE, Metabolic Activation: S-9, Method: SUSPENSION/PLATE inactive; negative | Test System: MOUSE LYMPHOMA, Strain/Indicator: L5178Y (TK+/TK-), Metabolic Activation: NONE, Method: SUSPENSION/PLATE inactive; negative | Test System: MOUSE LYMPHOMA, Strain/Indicator: L5178Y (TK+/TK-), Metabolic Activation: RAT, LIVER, S-9, AROCLOR 1254, Method: SUSPENSION/PLATE inactive; negative | Test System: MOUSE LYMPHOMA, Strain/Indicator: L5178Y (TK+/TK-), Metabolic Activation: S-9, Method: SUSPENSION/PLATE inactive; negative

CC1(C)CC(N)CC(C)(CN)C1 (stereo not given)
inactive: [1] inactive; negative | Test System: AMES SALMONELLA TYPHIMURIUM, Strain/Indicator: TA98, Metabolic Activation: RAT, LIVER, S-9, PCB, Method: PREINCUBATION inactive; negative | [2] inactive; negative | Test System: AMES SALMONELLA TYPHIMURIUM, Strain/Indicator: TA100, Metabolic Activation: RAT, LIVER, S-9, PCB, Method: PREINCUBATION inactive; negative
